For one data set, the system named is human HDAC-8 mRNA. As to the kind of experiment: HDAC-8 mRNA expression in A549 cells, Northern blot. The settings on record: 24 hours. The class given is cell-based. The procedure:
To identify antisense oligodeoxynucleotides (ODN) capable of inhibiting HDAC-8 expression in human cancer cells, fourteen phosphorothioate ODNs containing sequences complementary to the 5′ or 3′ UTR of the human […] (GenBank Accession No. AF230097) were initially screened in A549 cells at 100 nM. Cells were harvested after 24 hours of treatment, and HDAC-8 RNA expression was analyzed by Northern blot analysis. […] Total RNAs were harvested and were analyzed by Northern Blot. GAPDH expression was analyzed to indicate total RNA loading in each lane.
(§1) In order to determine the dose response of HDAC7 antisense inhibitors to reduce HDAC7 message at the mRNA level, Human A549 cells were treated with 25 or 50 nM of antisense (AS1 and AS2) oligos directed against human HDAC-7 or the corresponding mismatch of AS1 (MM1) oligo or an universal mismatch (UMM) for 24 hours. […] The time dependence of HDAC7 antisense inhibitors on blocking HDAC7 gene expression at the mRNA level was analyzed by treating A549 cells with 50 nM AS1 or MM1 oligos. […] Similarly, A549 cells were treated with 25 nM or 50 nM of AS1 or AS2 oligos directed against human HDAC-8 or its MM oligo for AS2 (MM2) for 24 hours. AS-2 oligo against human HDAC8 at 50 nM was also used to treat A549 cells for 24 or 48 hours.
(§2) For all ex vivo oligo treatment, human A549 human […] carcinoma cells were seeded in 10 cm tissue culture dishes one day prior to oligonucleotide treatment. The cell lines were obtained from the American Type Culture Collection (ATCC) (Manassas, Va.) and were grown under the recommended culture conditions. Before the addition of the oligonucleotides, cells were washed with PBS (phosphate buffered saline). Next, lipofectin transfection reagent (GIBCO BRL Mississauga, Ontario, Calif.), at a concentration of 6.25 μg/ ml, was added to serum free OPTIMEM medium (GIBCO BRL, Rockville, Md.), which was then added to the cells. The oligonucleotides were added directly to the cells (i.e., one oligonucleotide per plate of cells). Mismatched oligonucleotides were used as controls. The same concentration of oligonucleotide (e.g., 50 nM) was used per plate of cells for each oligonucleotide tested.
(§3) Cells were harvested, and total RNAs were analyzed by Northern blot analysis. Briefly, total RNA was extracted using RNeasy miniprep columns (QIAGEN Canada, Mississauga, Ontario). Ten to twenty […] of total RNA was run on a formaldehyde-containing 1% agarose gel with 0.5 M sodium phosphate (pH 7.0) as the buffer system. RNAs were then transferred to nitrocellulose membranes and hybridized with the indicated radiolabeled DNA probes. Autoradiography was performed using conventional procedures.

For a further data set, the system named is p21 protein. As to the kind of experiment: p21 protein expression in A549 cells. The class given is cell-based, human.
The subject of the next data set is human HDAC-7 protein. The experiment in a line: HDAC-7 protein expression in A549 cells, SDS-PAGE and antibody probing. The format is cell-based. The settings on record: 25 or 50 nM, 48 hours (time course 24 or 48 hours). The procedure: In order to determine whether treatment with HDAC ODNs would inhibit HDAC protein expression, human A549 cancer cells were treated with 25 or 50 nM of paired antisense or its mismatch oligos directed against human HDAC-7 for 48 hours. ODN treatment conditions were as previously described.
Cells were lysed in buffer containing 1% Triton X-100, 0.5% sodium deoxycholate, 5 mM EDTA, 25 mM Tris-HCl, pH 7.5, plus protease inhibitors. Total protein was quantified by the protein assay reagent from Bio-Rad (Hercules, Calif.). 100 ug of total protein was analyzed by SDS-PAGE. Next, total protein was transferred onto a PVDF membrane and probed with HDAC-7-specific primary antibodies.

The next data set has as its system human HDAC-7 mRNA. As to the kind of experiment: HDAC-7 mRNA expression in A549 cells, Northern blot. The class given is cell-based. The settings on record: for HDAC-7 RNA expression, initial screen: 100 nM; for HDAC-7 RNA expression, initial screen / HDAC-7 mRNA expression, dose response (FIG. 1): 24 hours; for HDAC-7 mRNA expression, dose response (FIG. 1): 25 or 50 nM. The procedure:
To identify antisense oligodeoxynucleotide (ODN) capable of inhibiting HDAC-7 expression in human cancer cells, eighteen phosphorothioate ODNs containing sequences complementary to the 5′ or 3′ UTR of the human […] (GenBank Accession No. AF239243) were initially screened in A549 cells at 100 nM. Cells were harvested after 24 hours of treatment, and HDAC-7 RNA expression was analyzed by Northern blot analysis. […] Total RNAs were harvested and were analyzed by Northern Blot. GAPDH expression was analyzed to indicate total RNA loading in each lane.
as §1, §2, §3

The subject of a further data set is Du145 cells. As to the kind of experiment: Growth inhibition by antisense oligos, Du145. The format is cell-based, human. To be noted: 50 nM, 48 hour, vs cells treated with lipofectin. As to the method:
as §2
(§4) In order to determine the effect of HDAC ODNs on cell growth inhibition and cell death through apoptosis, A549, T24, DuI45, HCT116 cells (ATCC, Manassas, Va.), or HMEC cells (BioWhittaker, Walkersville, Md.) were treated with HDAC ODNs as previously described.
(§5) For the cell growth inhibition analysis, human cancer or normal cells were treated with 50 nM of paired AS or MM oligos directed against human HDAC-1, HDAC-7 or HDAC-8for up to 96 hours. Cell numbers were counted every day by trypan blue exclusion. Percentage of inhibition was calculated as (100 - AS cell numbers/control cell numbers)%.

The test system of the next data set is A549 cells. The experiment in a line: Growth inhibition by antisense oligos, A549. The format is cell-based, human. To be noted: 50 nM, 48 hour, vs cells treated with lipofectin. As to the method:
as §2, §4, §5

A further data set deals with T1, HDAC-8 (Homo sapiens, UniProt Q9BY41).
T1 sequence (Q9BY41 1-377): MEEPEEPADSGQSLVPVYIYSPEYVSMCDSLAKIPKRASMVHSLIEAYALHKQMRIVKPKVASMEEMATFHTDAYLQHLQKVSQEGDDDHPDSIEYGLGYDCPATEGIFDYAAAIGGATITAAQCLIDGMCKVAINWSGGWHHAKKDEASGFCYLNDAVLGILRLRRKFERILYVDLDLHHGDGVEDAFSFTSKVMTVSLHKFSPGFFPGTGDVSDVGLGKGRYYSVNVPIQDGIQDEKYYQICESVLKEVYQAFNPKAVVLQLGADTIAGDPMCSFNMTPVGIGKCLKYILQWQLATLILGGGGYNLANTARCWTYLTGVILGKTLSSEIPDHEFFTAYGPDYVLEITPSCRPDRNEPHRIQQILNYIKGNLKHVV
As to the kind of experiment: Enzyme inhibitory activity, HD8. The format is biochemical. The settings on record: read-out: IC50 HD 8.

The target in a further data set is HDAC-1 (Homo sapiens, UniProt Q13547). The experiment in a line: Enzyme inhibitory activity, HD1. The class given is biochemical. The settings on record: read-out: IC50 HD 1.
Another data set deals with HDAC-4 (Homo sapiens, UniProt P56524). The experiment in a line: Enzyme inhibitory activity, HD4. The class given is biochemical.
The subject of data set [1] is colon cancer cells HCT116. As to the kind of experiment: MTT assay, HCT116. The format is cell-based, human. The settings on record: 72 hours; read-out: IC50 HCT 116 (MTT). As to the method: Effects of HDAC isotype-specific small molecule inhibitors on growth inhibition of various human cancer cells (from ATCC) in vitro were determined by MTT assays. Briefly, cells seeded in 96-well plates were incubated for 72 hours at 37° C. in a 5% CO2 incubator. MTT (Sigma) was added at a final concentration of 0.5 mg/ml and incubated with the cells for 4 hours before an equal volume of solubilization buffer (50% N,N-dimethylformamide, 20% SDS, pH 4.7) was added onto cultured cells. After overnight incubation, solubilized dye was quantified by colorimetric reading at […] using a reference at 630 nM. OD values were converted to cell numbers according to a standard growth curve of the relevant cell line. The concentration which reduces cell numbers to 50% of those of DMSO-treated cells is determined as MTT IC50. In Table 4, IC50s of several HDAC7 or HDAC8 inhibitors in MTT assays in various human cancer cell lines were listed. They include colon cancer cells HCT116 and SW48, lung cancer cells A549 and H446, breast cancer cells MCF-7 and MDAmb231, a prostate cancer cell line Du145 and a bladder cancer cell line T24.
For orientation: Formazan colour is commonly taken as a measure of viable cells.

“Also recorded” adds a separate entry of the source. d = 2'-deoxy (DNA); m = 2'-O-methyl Where only a bound is given, the exact number is not on record here.

As usually defined, the IC50 is the concentration needed to halve the response being measured.

Sequence of HDAC-1 (Q13547 whole entry): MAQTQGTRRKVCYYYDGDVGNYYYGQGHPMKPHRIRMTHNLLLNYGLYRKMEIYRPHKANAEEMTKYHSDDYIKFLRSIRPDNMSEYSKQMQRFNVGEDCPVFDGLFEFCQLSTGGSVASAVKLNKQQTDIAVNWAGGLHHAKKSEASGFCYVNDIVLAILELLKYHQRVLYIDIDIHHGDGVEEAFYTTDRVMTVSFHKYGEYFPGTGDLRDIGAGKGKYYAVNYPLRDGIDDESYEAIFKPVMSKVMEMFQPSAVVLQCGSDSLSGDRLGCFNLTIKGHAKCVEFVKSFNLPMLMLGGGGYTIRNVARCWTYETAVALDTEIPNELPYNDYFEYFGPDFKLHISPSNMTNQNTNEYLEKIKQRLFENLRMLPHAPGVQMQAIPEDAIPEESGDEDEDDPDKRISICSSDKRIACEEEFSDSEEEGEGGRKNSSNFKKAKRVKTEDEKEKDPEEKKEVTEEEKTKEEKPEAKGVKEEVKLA
Sequence of HDAC-4 (P56524 whole entry): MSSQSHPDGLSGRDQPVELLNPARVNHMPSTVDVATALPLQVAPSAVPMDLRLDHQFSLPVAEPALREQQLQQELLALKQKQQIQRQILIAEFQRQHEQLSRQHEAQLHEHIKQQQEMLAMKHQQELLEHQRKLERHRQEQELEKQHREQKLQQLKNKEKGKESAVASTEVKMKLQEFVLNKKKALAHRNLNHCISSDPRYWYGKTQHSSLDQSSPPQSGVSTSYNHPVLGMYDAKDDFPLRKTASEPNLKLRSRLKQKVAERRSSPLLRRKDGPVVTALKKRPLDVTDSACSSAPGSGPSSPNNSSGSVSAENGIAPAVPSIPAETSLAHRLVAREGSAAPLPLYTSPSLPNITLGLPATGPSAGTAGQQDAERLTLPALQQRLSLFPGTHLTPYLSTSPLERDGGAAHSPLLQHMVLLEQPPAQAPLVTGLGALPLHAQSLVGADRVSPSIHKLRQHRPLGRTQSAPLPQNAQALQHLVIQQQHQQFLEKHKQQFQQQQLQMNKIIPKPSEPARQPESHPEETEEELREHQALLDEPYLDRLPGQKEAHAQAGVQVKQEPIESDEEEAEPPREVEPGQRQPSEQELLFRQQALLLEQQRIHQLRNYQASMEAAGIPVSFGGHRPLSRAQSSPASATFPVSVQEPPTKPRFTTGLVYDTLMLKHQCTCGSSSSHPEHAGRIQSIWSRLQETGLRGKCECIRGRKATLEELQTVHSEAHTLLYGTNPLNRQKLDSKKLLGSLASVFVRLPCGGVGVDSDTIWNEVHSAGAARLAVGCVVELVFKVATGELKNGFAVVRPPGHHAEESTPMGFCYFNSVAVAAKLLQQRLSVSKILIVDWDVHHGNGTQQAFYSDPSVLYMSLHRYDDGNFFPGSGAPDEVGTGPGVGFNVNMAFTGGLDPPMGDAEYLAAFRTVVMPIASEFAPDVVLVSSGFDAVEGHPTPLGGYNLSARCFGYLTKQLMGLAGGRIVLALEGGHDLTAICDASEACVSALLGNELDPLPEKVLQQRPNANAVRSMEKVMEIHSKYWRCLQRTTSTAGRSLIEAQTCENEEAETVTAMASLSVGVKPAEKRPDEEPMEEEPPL

As for “5′-CUCCGGCTCCTCCATCUUCC-3′ (sugars from the 5' end m4 d12 m4, all phosphorothioate, methylation of C not given here) [HDAC8 AS1, antisense oligo, Human HDAC8 5′-UTR]”, the “HDAC-8 mRNA expression, dose response (FIG. 5)” value in the data set on human HDAC-8 mRNA (25 nM or 50 nM) is recorded as “inhibited in a dose-dependent manner”. In addition, in the data set with human HDAC-8 mRNA (100 nM), the “HDAC-8 RNA expression, initial screen” value was “good antisense activities”.
As for “5′-CUUCAGCCAGGATGCCCACA-3′ (sugars from the 5' end m4 d12 m4, all phosphorothioate, methylation of C not given here) [HDAC7 AS2, antisense oligo, Human HDAC7 3′-UTR]”, the “p21 protein expression (FIG. 2)” value in the data set on p21 protein was “induced”. Further, the “HDAC-7 protein expression (FIG. 2, FIG. 4)” value in the data set with human HDAC-7 protein is “inhibited”. In the data set on human HDAC-7 mRNA, the “HDAC-7 RNA expression, initial screen” value is recorded as “good antisense activities” and the “HDAC-7 mRNA expression, dose response (FIG. 1)” value is reported as “can inhibit human HDAC7 expression at the mRNA level; also recorded: inhibited in a dose-dependent manner”.
As to “5′-CGCUTTCCTTGTCATTGACA-3′ (sugars from the 5' end m4 d12 m4, all phosphorothioate, methylation of C not given here) [HD3 AS1, antisense oligo, Human HDAC3 3′-UTR]”, the “Growth Inhibition Du145” value in the data set on Du145 cells is listed as “+ (“+” means >35% inhibition of cell growth by antisense oligos (50 nM, 48 hour) compared to that of cells treated with lipofectin)”.
As for “5′-GCAGCGGCGGCAGCACCUCC-3′ (sugars from the 5' end m4 d12 m4, all phosphorothioate, methylation of C not given here) [HD5 AS1, antisense oligo, Human HDAC5 5′-UTR]”, the “Growth Inhibition Du145” value with Du145 cells was “+ (“+” means >35% inhibition of cell growth by antisense oligos (50 nM, 48 hour) compared to that of cells treated with lipofectin)”.
Take “5′-CAGGCTCACTTGACAAUGGC-3′ (sugars from the 5' end m4 d12 m4, all phosphorothioate, methylation of C not given here) [HD7 AS1, antisense oligo, Human HDAC7 5′-UTR]”: the “Growth Inhibition A549” value in the data set with A549 cells is recorded as “+ (“+” means >35% inhibition of cell growth by antisense oligos (50 nM, 48 hour) compared to that of cells treated with lipofectin)”. In addition, the “p21 protein expression (FIG. 2)” value in the data set on p21 protein is reported as “induced”. Besides, the “HDAC-7 protein expression (FIG. 2, FIG. 4)” value in the data set on human HDAC-7 protein is on record as “inhibited”. Moreover, in the data set with human HDAC-7 mRNA (50 nM), the “HDAC-7 mRNA expression, time course (FIG. 3)” value was “significantly block gene expression of human HDAC7 at the mRNA level by 24 hours”. The “HDAC-7 RNA expression, initial screen” value in the data set with human HDAC-7 mRNA was “good antisense activities”. Also, the “HDAC-7 mRNA expression, dose response (FIG. 1)” value in the data set with human HDAC-7 mRNA (listed as HDAC7 AS1) is given as “can inhibit human HDAC7 expression at the mRNA level; also recorded: inhibited in a dose-dependent manner”. Further, in the data set on Du145 cells, the “Growth Inhibition Du145” value is “+ (“+” means >35% inhibition of cell growth by antisense oligos (50 nM, 48 hour) compared to that of cells treated with lipofectin)”.
With `CC(C=CC(=O)NO)=CC(C)Cc1ccc(N(C)C)cc1` (stereo not shown) [Compound 4, N-Hydroxy-4,6-dimethyl-7-[(4-N,N-dimethylaminophenyl)]-2,4-heptadienamide], the IC50 on HDAC-8 was 400 nM; on HDAC-1, 2000 nM; at HDAC-4, over 10000 nM; in data set [1], 6000 nM.

Source of the values: patent US20040072770A1, “Methods for specifically inhibiting histone deacetylase-7 and 8” (priority 2002, published 2004).
